Values quoted from earlier work in publication PMC11510164 (Pharmaceuticals, 2024).

Test system: not given
Details: 25 °C

Row | Structure (SMILES) | water solubility [µg/mL]
1 | Cc1cccc(Nc2ccccc2C(=O)O)c1C [MFA, Mefenamic acid, reference compound] | 10 to 20

Same assay, conditions: pure component (ChCl: solid); ref per cell: 90, 123, 125, 126, 127, 129, 137, 139

Row | Structure (SMILES) | Density (g/cm^3) | Density [g/mL]
2 | CC1CCC(C(C)C)C(O)C1 (racemic) [MNT, (±)-menthol] | 0.89 [90] g/cm^3 | –
3 | CCCCCCCC/C=C\CCCCCCCC(=O)O [OLA, Oleic acid] | 0.89 [126] g/cm^3 | –
4 | OC[C@H]1OC(O)(CO)[C@@H](O)[C@@H]1O (stereo partly drawn) [Fru, D-(−)-fructose] | 1.60 [126] g/cm^3 | –
5 | OCC(O)CO [Gly, Glycerol] | 1.26 [129] g/cm^3 | –
6 | O=C(O)C(=O)O [Oxa, Oxalic acid] | 1.90 [126] g/cm^3 | –
7 | OC[C@@H](O)[C@H](O)[C@@H](O)CO [Xyl, Xylitol] | 1.50 [137] g/cm^3 | –
8 | C=C(C)[C@H]1CC=C(C)CC1 [Lim, (R)-(+)-limonene] | 0.84 [126] g/cm^3 | –
9 | CCCCCCCCCC(=O)O [Dec, Decanoic acid (capric acid)] | 0.89 [126] g/cm^3 | –
10 | CC(C)Cc1ccc(C(C)C(=O)O)cc1 (stereo not shown) [IBU, Ibuprofen, reference compound] | 1.03 [123] g/cm^3 | –
11 | Cc1cccc(Nc2ccccc2C(=O)O)c1C [MFA, Mefenamic acid, reference compound] | 1.20 [125] g/cm^3 | –
12 | N[C@@H](CS)C(=O)O [Cys, L-Cysteine] | 1.66 [126] g/cm^3 | –
13 | OC[C@@H](O)[C@@H](O)[C@H](O)[C@@H](O)CO [Sor, D-(−)-sorbitol] | 1.47 [129] g/cm^3 | –
14 | O=C(O)CO [Gla, Glycolic acid] | 1.26 [126] g/cm^3 | –
15 | C[N+](C)(C)CCO [ChCl, Choline chloride] | – | ~1.205
16 | C[C@H](O)C(=O)O [Lac, L-lactic acid] | 1.25 [129] g/cm^3 | –
17 | CC(O)CO (stereo not shown) [PG, Propylene glycol] | 1.04 [126] g/cm^3 | –
18 | N=C(N)NCCC[C@H](N)C(=O)O [Arg, L-Arginine] | 1.42 [126] g/cm^3 | –
19 | OC[C@H]1O[C@H](O)[C@H](O)[C@@H](O)[C@@H]1O [Glu, D-(+)-glucose] | 1.5620 [126] g/cm^3 | –
20 | CCCCCCCCCCCCCC(=O)OC(C)C [IPM, Isoporpyl miristate] | 0.85 [126] g/cm^3 | –

Same assay, conditions: sol. 70%

Row | Structure (SMILES) | Density [g/mL]
21 | C[N+](C)(C)CCO [ChCl, Choline chloride] | ~1.1

Test system: rats
Details: rat, in vivo, po

Row | Structure (SMILES) | LD50 [mg/kg]
22 | CC1CCC(C(C)C)C(O)C1 (racemic) [MNT, (±)-menthol] | 3000
